Results: patent US11464795B2, “Saponin compound targeting PD-1 and application thereof” (EAST CHINA UNIVERSITY OF SCIENCE AND TECHNOLOGY, priority 2017, dated 2022)

What was measured:
[1] = target: T1, recombinant human PD-1 protein (Homo sapiens, UniProt Q15116); experiment: SPR determination of binding constants between saponin natural products and PD-1 protein; settings: PD-1 coupled to CM7 chip, steady-state fitting, read-out: Binding affinity KD
T1 construct: amino acids 34-150 of human PD-1; made in house; host or cells: E. coli BL21 (DE3), pET-28a
T1 sequence (Q15116 34-150): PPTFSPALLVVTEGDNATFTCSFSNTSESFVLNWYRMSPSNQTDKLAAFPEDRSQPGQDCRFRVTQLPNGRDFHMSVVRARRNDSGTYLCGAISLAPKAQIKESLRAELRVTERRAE
Procedure: Surface plasmon resonance (SPR) was used to determine the binding affinity between natural products and PD-1 protein. Specific experimental steps are as follows: Firstly, the purified protein was exchanged into 50 mM Hepes, pH 8.0, 250 mM NaCl, 1 mM DTT buffer, and diluted to 50 μg/ml with sodium acetate pH 4.5. The protein was coupled to CM7 chip with a coupling kit for 600 s at a flow rate of 10 μl/min. The final coupling amount was about 13000 RU. After the coupling was completed, the CM7 chip was equilibrated to a stable state in a buffer solution (1.05×PBS, 0.05% P20). […] The final data was analyzed by BIAevaluation2.0 software, and KD values were obtained by steady-state fitting.

[2] = target: T2, human PD-1 binding to human PD-L1 (Homo sapiens, UniProt Q15116); experiment: SPR competition of compounds with PD-L1 protein for binding PD-1; settings: PD-L1 on CM5 chip, compound pre-incubated with 3 μM PD-1 protein
T2 construct: amino acids 34-150 of human PD-1; made in house; PD-L1: purchased from Beijing Yiqiao Shenzhou Biotechnology Co., Ltd., no catalogue number
T2 sequence (Q15116 34-150): as above
Procedure: Based on the results in the above examples, the present inventors investigated whether the compound can competite with PD-L1 for binding PD-1, and thus block PD-1 from binding PD-L1. PD-L1 protein was purchased from Beijing Yiqiao Shenzhou Biotechnology Co., Ltd. Specific experimental steps are as follows: 50 μg/ml PD-L1 protein was coupled to CM5 chip by amino coupling method. The coupling amount was about 3780 RU. Compounds of different concentrations were incubated with 3 μM PD-1 protein on ice for 30 min, and flowed across the surface of the chip along with the running buffer (1.05×PBS, 0.05% P20, 1% DMSO) at a flow rate of 30 μL/min, for binding time of 90 s and dissociation time of 120 s. PD-1 protein bound to PD-L1 protein on the chip decreases as the concentration of the compound increases, therefore, the response value decreases. The results of this experiment indicate that compounds can block PD-1 from binding PD-L1.

Jurkat T cells = experiment: Detection of IL-2 secretion in T cells by ELISA (BxPC-3 / Jurkat T co-culture); format: cell-based; settings: for Increase of the amount of IL-2 produced by Jurkat T cells: 50 μM compound, BxPC-3 tumor cells and Jurkat T cells co-cultured 3:1, 48 h, ELISA; for Restoration of the ability of depleted Jurkat T cells to secrete IL-2: FIG. 5 legend, result in words
Procedure: The inventors selected several compounds for the evaluation experiment of cell function. We co-cultured stimulated BxPC-3 tumor cells and activated Jurkat T cells in a 96-well plate at a ratio of 3:1. Jurkat T cells were cultured alone as a negative control. 50 μM of compound was added into the experimental group, and a D-hank's solution with the same DMSO content was used as a negative control. Each group was incubated in a carbon dioxide cell incubator for 48 h. The supernatant medium was collected and detected for the amount of IL-2 by an ELISA kit. Experiments were performed in triplicate. After tumor cells were co-cultured with T cells, the amount of IL-2 produced by the T cells was suppressed by about 55%. After 50 μM of compound 6 was added, the amount of IL-2 produced by Jurkat T cells can be increased by about 30%; after 50 μM of compound 8 was added, the amount of IL-2 produced by Jurkat T cells can be increased by about 1^7%; after 50 μM of compound 10 was added, the amount of IL-2 produced by Jurkat T cells can be increased by about 30%; after 50 μM of compound 11 was added, the amount of IL-2 produced by Jurkat T cells can be increased by about 12%; and after 50 μM of compound 13 was added, the amount of IL-2 produced by Jurkat T cells can be increased by about 23%. Such effects can be achieved in three repeated experiments. The results of this experiment indicate that the compounds can, to a certain extent, restore the function of T cells.

| Compound | Kd [1] [nM] | Blocking of human PD-1 binding to human PD-L1 [2] | Increase of the amount of IL-2 produced by Jurkat T cells (Jurkat T cells) | Restoration of the ability of depleted Jurkat T cells to secrete IL-2 (Jurkat T cells) |
| --- | --- | --- | --- | --- |
| CC1(C)CC[C@]2(C(=O)O)CC[C@]3(C)C(=CC[C@@H]4[C@@]5(C)CC[C@H](O[C@@H]6O[C@H](C(=O)O)[C@@H](O)[C@H](O[C@@H]7OC[C@@H](O)[C@H](O)[C@H]7O)[C@H]6O)C(C)(C)[C@@H]5CC[C@]43C)[C@@H]2C1 [Compound 6] | 40 | can block human PD-1 from binding to human PD-L1 | about 30% | can restore the ability of depleted Jurkat T cells to secrete IL-2 |
| C[C@@H]1OC(O[C@H]2C(O[C@H]3CC[C@@]4(C)C(CC[C@]5(C)C4CC=C4C6CC(C)(C)CC[C@]6(C(=O)O)CC[C@]45C)[C@]3(C)CO)OC[C@H](OC3O[C@H](CO)[C@@H](O)[C@H](O)[C@H]3O)[C@@H]2O)[C@H](O)[C@H](O)[C@H]1O (stereo partly drawn) [Compound 3] | 2100 | – | – | – |
| CC1(C)CCC2(C(=O)O)CC[C@]3(C)C(=CCC4[C@@]5(C)C[C@@H](O)[C@H](O)C(C)(C)C5CC[C@]43C)C2C1 (stereo partly drawn) [Compound 12] | – | can block human PD-1 from binding to human PD-L1 | – | – |
| CC1(C)CC[C@]2(C(=O)O[C@@H]3O[C@H](CO)[C@@H](O)[C@H](O)[C@H]3O)CC[C@]3(C)C(=CCC4[C@@]5(C)CCC(OC6O[C@H](C(=O)O)[C@@H](O)[C@H](O)[C@H]6O)C(C)(C)C5CC[C@]43C)[C@H]2C1 (stereo partly drawn) [Compound 4] | 560 | can block human PD-1 from binding to human PD-L1 | – | – |
| C[C@@H]1CC[C@@]2(C(=O)O)CC[C@]3(C)C(=CCC4[C@@]5(C)C[C@@H](O)[C@H](O)C(C)(C)C5CC[C@]43C)C2[C@H]1C (stereo partly drawn) [Compound 8] | 5020 | can block human PD-1 from binding to human PD-L1 | – | can restore the ability of depleted Jurkat T cells to secrete IL-2 |
| CC1(C)CC[C@]2(C(=O)O)CC[C@]3(C)C(=CC[C@@H]4[C@@]5(C)CC[C@H](O)[C@@](C)(CO)[C@@H]5CC[C@]43C)[C@@H]2C1 [Compound 5] | 5360 | can block human PD-1 from binding to human PD-L1 | – | – |
| C[C@H]1[C@H](C)CC[C@]2(C(=O)O)CC[C@]3(C)C(=CC[C@@H]4[C@@]5(C)C[C@@H](O)[C@@H](O)C(C)(C)[C@@H]5CC[C@]43C)[C@H]12 [Compound 13] | 1770 | can block human PD-1 from binding to human PD-L1 | about 23% | can restore the ability of depleted Jurkat T cells to secrete IL-2 |
| C[C@H]1[C@H](C)CC[C@]2(C(=O)O)CC[C@]3(C)C(=CC[C@@H]4[C@@]5(C)C[C@@H](O)[C@H](O)C(C)(C)[C@@H]5CC[C@]43C)[C@H]12 [Compound 11] | 1400 | can block human PD-1 from binding to human PD-L1 | about 12% | can restore the ability of depleted Jurkat T cells to secrete IL-2 |
| C[C@@H]1CC[C@]2(C(=O)O)CC[C@]3(C)C(=CCC4[C@@]5(C)CC[C@H](O)C(C)(C)C5CC[C@]43C)C2[C@H]1C (stereo partly drawn) [Compound 9] | 4920 | can block human PD-1 from binding to human PD-L1 | – | – |
| C[C@@H]1CC[C@]2(C(=O)O)CC[C@]3(C)C(=CC[C@@H]4[C@@]5(C)CC[C@H](O[C@@H]6OC[C@H](O)[C@H](O)[C@H]6O)C(C)(C)[C@@H]5CC[C@]43C)[C@@H]2[C@]1(C)O [Compound 2] | 440 | can block human PD-1 from binding to human PD-L1 | – | – |
| C[C@@H]1O[C@@H](O[C@H]2[C@H](O[C@H]3[C@H](O[C@H]4CC[C@@]5(C)[C@@H](CC[C@]6(C)[C@@H]5CC=C5[C@@H]7CC(C)(C)C[C@@H](O)[C@]7(C)CC[C@]56C)[C@@]4(C)CO)O[C@H](C(=O)O)[C@@H](O)[C@@H]3O)O[C@H](CO)[C@H](O)[C@@H]2O)[C@H](O)[C@H](O)[C@H]1O [Compound 7] | 2190 | can block human PD-1 from binding to human PD-L1 | – | – |
| CC1(C)CC[C@]2(C(=O)O)CC[C@]3(C)C(=CCC4[C@@]5(C)CC[C@H](O)C(C)(C)C5CC[C@]43C)C2C1 (stereo partly drawn) [Compound 10] | 2710 | can block human PD-1 from binding to human PD-L1 | about 30% | can restore the ability of depleted Jurkat T cells to secrete IL-2 |
| CC1(C)CC[C@]2(C(=O)O[C@@H]3O[C@H](CO)[C@@H](O)[C@H](O)[C@H]3O)CC[C@]3(C)C(=CC[C@@H]4[C@@]5(C)CC[C@H](OC6O[C@H](C(=O)O)[C@@H](O)[C@H](O)[C@H]6OC6O[C@H](CO)[C@@H](O)[C@H](O)[C@H]6O)C(C)(C)[C@@H]5CC[C@]43C)[C@@H]2C1 (stereo partly drawn) [Compound 1] | 2230 | can block human PD-1 from binding to human PD-L1 | – | – |
